US20230123104A1, “CRYSTAL OF TRICYCLIC COMPOUND ACTING ON CRBN PROTEIN AND PREPARATION METHOD THEREFOR” (CHIA TAI TIANQING PHARMACEUTICAL GROUP CO., LTD., priority 2020, published 2023)

Tests used:
[1] = Pharmacokinetic evaluation in rats; format: in vivo, SD male rats
Excerpt: (§1) The test animals in the study were SD male rats, and the LC/MS/MS method was used to quantitatively determine the drug concentration in the plasma of the rats at different time points after intravenous injection or oral administration of the compound of formula (I), thus evaluating the pharmacokinetic characteristics of the compound of formula (I) in the rats.
Sprague Dawley (SD) rats (male, 200-300 g, 7-10 weeks old, Beijing Vital River or Shanghai SLAC).
(§2) Clear solution of the compound of formula (I) was injected into SD rats (fasted overnight) via the tail vein or administered intragastrically to SD rats (fasted overnight). For intravenous injection, 200 μL of blood was each collected by jugular vein puncture at 0 h (before injection) and 0.0833 h, 0.25 h, 0.5 h, 1 h, 2 h, 4 h, 6 h, 8 h and 24 h (after injection), and then placed in an anticoagulation tube added with EDTA-K2 (Jiangsu KANGJIAN Medical Apparatus Co., Ltd.), and the mixture was thoroughly vortex-mixed at 4° C. and centrifuged at 13000 rpm for 10 min; for intragastric administration, blood was collected by jugular vein puncture at 0 h (before administration) and 0.5 h, 1 h, 2 h, 4 h, 6 h, 8 h and 24 h (after administration), and then placed in an anticoagulation tube added with EDTA-K2 (Jiangsu KANGJIAN Medical Apparatus Co., Ltd), and the mixture was thoroughly vortex-mixed and centrifuged at 13000 rpm for 10 min. The plasma concentration was measured by LC-MS/MS, and the relevant pharmacokinetic parameters were calculated using WinNonlin™ Version 6.3 (Pharsight, Mountain View, Calif.), a pharmacokinetic software, with a non-compartmental model linear-log trapezoidal method.

[2] = tested on: multiple myeloma cell line MM.1S; assay: Antiproliferative effect, CellTiter-Glo cell viability assay, MM.1S; format: cell-based, human
Method: (§3) In this experiment, the inhibition of cell proliferation in multiple myeloma cell lines MM.1S and NCI-H929 by the compound of formula (I) was detected.
(§4) The tumor cell lines were cultured in an incubator at 37° C. with 5% CO2 under the culture conditions described above. Periodical passaging was performed, and cells growing at log phase were used for plating.
(§5) (1) Cells were stained with trypan blue and viable cells were counted.
(§6) (2) The cell concentration was adjusted to an appropriate level.
(§7) (3) 90 μL of cell suspension was added to each well in the culture plate and cell-free medium was added to the blank control wells according to the table above.
(§8) (4) The culture plate was incubated overnight in an incubator at 37° C. with 5% CO2 and 100% relative humidity. […]
(§9) The following procedure was performed according to the instructions of Promega CellTiter-Glo luminescence cell viability assay kit (Promega-G7573). […]
(§10) (8) The culture plate was placed at room temperature for 10 min to stabilize the luminescence signals.
(§11) (9) The luminescence signals were detected on 2104 EnVision plate reader.
(§12) Inhibition rates of the compound of formula (I) at different concentrations were calculated in Excel, followed by plotting the inhibition curves and calculating relevant parameters including minimum inhibition rate, maximum inhibition rate and IC50 using GraphPad Prism software.

[3] = tested on: human myeloma MM.1S cells; assay: In vivo pharmacodynamic study in subcutaneous xenograft tumor CB-17 SCID model; design: species or system CB-17 SCID mice; details: 5 mg/kg oral, twice daily
Method: Cell culturing: human multiple myeloma cells MM.1S (ATCC® CRL-2974™) were cultured in vitro, in a semi-suspension manner, with an ATCC-formulated RPMI-1640 medium containing 10% fetal calf serum, 100 U/mL penicillin and 100 μg/mL streptomycin in an incubator at 37° C. with 5% CO2. Passages were performed twice a week. At a required number, the cells were taken, counted and inoculated.
Animals: CB-17 SCID mice, female, 6-8 weeks old, weighing 18-20 g.
0.2 mL (5×10^6 cells) of MM.1S cells (along with matrigel in a volume ratio of 1:1) was subcutaneously inoculated on the right back of each mouse, and the mice were divided into groups for administration after the mean tumor volume was approximately 130 mm^3. Seven days constitute an administration cycle, twice daily with a 12 h interval, and the compound of formula (I) was orally administered for a total of four cycles. The compound of formula (I) was administered at a dose of 5 mg/kg, tumor volume was measured twice weekly with a two-dimensional caliper, and the volume was measured in cubic millimeters and calculated according to the following formula: V=0.5a×b^2, where a and b are the long and short diameters, respectively, of the tumor. Anti-tumor efficacy was determined by dividing the mean tumor increase volume of animals treated with the compound of formula (I) by the mean tumor increase volume of untreated animals.

[4] = Pharmacokinetic evaluation in mice; format: in vivo, C57BL male mice
Excerpt: as §1, with “C57BL” for “SD”, “mice,” for “rats,”, “mice” for “rats”, “test compound,” for “compound of formula (I),”, “mice.” for “rats.”
C57Balb/C (C57) mice (male, 20-30 g, 7-10 weeks old, Beijing Vital River or Shanghai SLAC).
as §2, with “Clear or suspended” for “Clear”, “C57 mice” for “SD rats”, “Ltd.),” for “Ltd),”

[5] = tested on: multiple myeloma cell line NCI-H929; assay: Antiproliferative effect, CellTiter-Glo cell viability assay, NCI-H929; format: cell-based
Method: as §3, §4, §5, §6, §7, §8, §9, §10, §11, §12

[6] = intragastric administration (10 mg/kg)
[7] = intravenous injection (2 mg/kg)

O=C1CCC(c2noc3ccc4[nH]ccc4c23)C(=O)N1 (centres unmarked) [Compound of formula (I)]
Area under plasma concentration-time curve (0-inf) [1, 6]: 26.34 µM·h | Bioavailability F [1, 6]: 66.5% | Peak concentration [1, 6]: 12.75 µM | Time to peak [1, 6]: 0.50 h | Area under plasma concentration-time curve (0-inf) [1, 7]: 7.92 µM·h | inhibitory effect on cell proliferation (conclusion) [2]: excellent inhibitory effect | IC50 ([2]; Homo sapiens, MM1.S, 120 h, co-incubated 5 days, CellTiter-Glo): 0.4 nM | Tumor volume (Day 0) ([3]; Day 0): 131 ± 12 mm^3 | TGI (Day 24) ([3]; Day 24): 105% | Tumor volume (Day 24) ([3]; Day 24): 14 ± 5 mm^3 | Area under plasma concentration-time curve (0-inf) [4, 7]: 5.34 µM·h | Area under plasma concentration-time curve (0-inf) ([4]; oral administration (10 mg/kg)): 12.29 µM·h | Bioavailability F ([4]; oral administration (10 mg/kg)): 46.1% | Peak concentration ([4]; oral administration (10 mg/kg)): 10.52 µM | Time to peak ([4]; oral administration (10 mg/kg)): 0.25 h | IC50 ([5]; Homo sapiens, 120 h, NCI-H929, co-incubated 5 days, CellTiter-Glo): 0.5 nM | inhibitory effect on cell proliferation (conclusion) ([5]; NCI-H929): excellent inhibitory effect
